Experimental data published in PMC12567098, “Multi-Kinase Inhibition by New Quinazoline–Isatin Hybrids: Design, Synthesis, Biological Evaluation and Mechanistic Studies” (Pharmaceuticals, 2025).

What was measured:
[1] = tested on: Bax; assay: RT-qPCR gene expression analysis, Bax; type: cell-based; conditions: HepG2, RT-qPCR, fold vs untreated = 1
Excerpt: (§1) One significant anticancer mechanism is apoptosis. Drugs that induce apoptosis cause simultaneous or subsequent activation of death receptor systems, mitochondrial dysfunction, and caspase proteolytic processing. Thus, the cell death pathway may occur in several locations. In this study, the alteration in Bax, Bcl-2, and caspase-3 and 9 gene expression following the stimulation of apoptosis by 6c in HepG2 cells using the RT-qPCR method and staurosporine as a positive control is reported in Table 4.
(§2) 3.4.5. Gene Expression Analysis
(§3) After the RNA extraction,
(§4) reverse transcriptase enzyme.
(§5) The amplification reactions
(§6) The data were analyzed using a […]

[2] = tested on: Caspase-9; assay: RT-qPCR gene expression analysis, caspase-9; type: cell-based; conditions: HepG2, RT-qPCR, fold vs untreated = 1
Excerpt: as §1, §2, §3, §4, §5, §6

[3] = tested on: Bcl-2; assay: RT-qPCR gene expression analysis, Bcl-2; type: cell-based; conditions: HepG2, RT-qPCR, fold vs untreated = 1
Excerpt: as §1, §2, §3, §4, §5, §6

[4] = tested on: Caspase-3; assay: RT-qPCR gene expression analysis, caspase-3; type: cell-based; conditions: HepG2, RT-qPCR, fold vs untreated = 1
Excerpt: as §1, §2, §3, §4, §5, §6

[5] = tested on: HeLa; assay: MTT cytotoxicity assay, HeLa; type: cell-based; conditions: Homo sapiens, 48 h
Excerpt: (§7) Doxorubicin and sunitinib were used as positive controls for comparison.
(§8) The MTT assay is widely used to measure cell proliferation, cell viability, and cytotoxicity. It is based on reducing MTT dye into formazan crystals by living cells, determining mitochondrial activity.
(§9) 3.4. Biological Screening
(§10) Four cancer celllines; Hepatocellular carcinoma (HepG2), Breast adenocarcinoma (MCF-7), Breast adenocarcinoma […]
(§11) from American Type Culture Collection (ATCC, USA) via Holding company for biological products and vaccines (VACSERA), Cairo, Egypt. Antibiotic solutions and sterilesolutions were purchased from Sigma-Aldrich.
(§12) 3.4.2. Cytotoxicity Assay […]
(§13) dimethylthiazol-2-yl)-2,5-diphenyltetrazolium bromide) assay.[41–43] MTT assay is widely used to measure cell proliferation, cell viability, and cytotoxicity. It is based on reducing MTT dye into formazan crystals by living cells, determining mitochondrial activity.[44] For the assay, cells were seeded in Dulbecco’s modified minimum essential medium (DMEM) at a density of 1.0× 10^4 cells/well in 96-well plates, supplemented with 10% FBS and 5% CO2 at 37 °C for 24 h. To each well, a test compound was added at different concentrations .Each concentration was examined three times. Then the cells were treated with the compounds at 37 °C under 5 % CO2 for 48 h. Following this, MTT dye was added to each well at a final concentration of 0.5 mg/ml. Cells were treated with this tetrazolium dye for 4 h. Next, […]
(§14) dissolved by adding 100 µl dimethyl sulfoxide (DMSO), and the absorbance in each well was recorded at 570 nm in a […]
(§15) Absorbance at 570nm directly correlates with cell viability. IC50 (μM) values were determined using Graph Pad Prism software version 5 (Graph Pad Software Inc, CA). The cells were also treated with Doxorubicin; a standard anticancer drug used as positive control.

[6] = tested on: MCF-7; assay: MTT cytotoxicity assay, MCF-7; type: cell-based; conditions: Homo sapiens, MCF7, 48 h
Excerpt: as §7, §8, §9, §10, §11, §12, §13, §14, §15

[7] = tested on: HepG2; assay: MTT cytotoxicity assay, HepG2; type: cell-based; conditions: Homo sapiens, 48 h
Method: (§16) The synthesized isatin–quinazoline compounds (6a–d) were assessed for their cytotoxicity against four cancer cell lines, namely, hepatocellular carcinoma HepG2, breast carcinoma MCF-7, breast adenocarcinoma MDA-MB-231, and cervical carcinoma HeLa, using an MTT colorimetric assay. Doxorubicin and sunitinib were used as positive controls for comparison. The antiproliferative activities are expressed as the median growth inhibitory concentration (IC50) in micromolar range and are described in Table 1.
as §8, with “Cytotoxicity of the synthesized compounds 6a–d was assessed by performing a colorimetric MTT (3-(4,5-dimethylthiazol-2-yl)-2,5-diphenyltetrazolium bromide) assay. The” for “The”
as §9
(§17) Four cancer celllines; Hepatocellular carcinoma (HepG2), Breast adenocarcinoma (MCF-7), Breast adenocarcinoma (MDA-MB-231), and Cervical carcinoma (HeLa) and normal fibroblast cell line (WI38) used in this study were obtained from American Type Culture Collection (ATCC, USA) via Holding company for biological products and vaccines (VACSERA), Cairo, Egypt. Antibiotic solutions and sterilesolutions were purchased from Sigma-Aldrich.
(§18) 3.4.2. Cytotoxicity Assay
(§19) Cytotoxicity of the synthesized compounds 6a-d was done by performing a colorimetric MTT ( 3-(4,5-dimethylthiazol-2-yl)-2,5-diphenyltetrazolium bromide) assay.[41–43] MTT assay is widely used to measure cell proliferation, cell viability, and cytotoxicity. It is based on reducing MTT dye into formazan crystals by living cells, determining mitochondrial activity.[44] For the assay, cells were seeded in Dulbecco’s modified minimum essential medium (DMEM) at a density of 1.0× 10^4 cells/well in 96-well plates, supplemented with 10% FBS and 5% CO2 at 37 °C for 24 h. To each well, a test compound was added at different concentrations .Each concentration was examined three times. Then the cells were treated with the compounds at 37 °C under 5 % CO2 for 48 h. Following this, MTT dye was added to each well at a final concentration of 0.5 mg/ml. Cells were treated with this tetrazolium dye for 4 h. Next, purple crystals of formazan were noticed in each well, formed as a metabolic product of MTT. These crystals were dissolved by adding 100 µl dimethyl sulfoxide (DMSO), and the absorbance in each well was recorded at 570 nm in a microplate reader (EXL 800, USA). Absorbance at 570nm directly correlates with cell viability. IC50 (μM) values were determined using Graph Pad Prism software version 5 (Graph Pad Software Inc, CA). The cells were also treated with Doxorubicin; a standard anticancer drug used as positive control.

[8] = tested on: WI38; assay: MTT cytotoxicity assay, normal fibroblast WI38; type: cell-based; conditions: Homo sapiens, WI-38, 48 h, normal fibroblast cell line WI38
Excerpt: as §7, §8, §9, §10, §11, §12, §13, §14, §15

[9] = tested on: MDA-MB-231; assay: MTT cytotoxicity assay, MDA-MB-231; type: cell-based; conditions: Homo sapiens, 48 h
Method: as §16
as §8, with “Cytotoxicity of the synthesized compounds 6a–d was assessed by performing a colorimetric MTT (3-(4,5-dimethylthiazol-2-yl)-2,5-diphenyltetrazolium bromide) assay. The” for “The”
as §9, §17, §18, §19

[10] = tested on: HepG2 cells; assay: Annexin V-FITC/PI dual-staining apoptosis assay; type: cell-based; conditions: HepG2, 2.6 μM (IC50), 24 h
Method: Apoptosis can be detected by measuring translocated phosphatidylserine (PS) from the interior to the surface of the cell membrane. Therefore, an annexin V-FITC/PI (fluorescein–isothiocyanate/propidium iodide) dual staining flow cytometric assay was carried out for compound 6c to investigate the mechanism of cell death induced by the assessed compound.
The apoptosis assay was performed with an annexin V-FITC/PI double staining apoptosis detection kit (K101, BioVision Inc., Mountain View, CA, USA) using a flow cytometer. Experimental procedures are described in detail in theSupplementary Information. […]
3.4.4. Annexin V-FITC Dual-Staining Apoptosis Assay
Apoptosis assay was performed with an Annexin V-FITC / PI double staining apoptosis detection kit (K101, BioVision Inc, Mountain View, CA, USA) using a flow cytometer.[47,48] […]
concentration (2.6 μM) for 24 h. After treatment, the cells were collected, washed two times with PBS, and resuspended in 500 µL binding buffer. Next, annexin V-FITC (5 µL ) and propidium iodide (PI) 5 µL were intruduced to the suspension and the cells were left in the dark for 15 min at room temperature. Samples were then recorded by Epics XL-MCL™ flow cytometer (Beckman- Coulter, USA) and Flowing software (Turku Centre for Biotechnology, University of Turku, Turku, Finland).

[11] = biological target: EGFR (Homo sapiens, UniProt P00533); assay: In vitro EGFR kinase inhibitory assay (BPS kit, Kinase-Glo)
Method: (§20) In vitro CDK2, EGFR, VEGFR -2, and HER2 Inhibitory Assays
(§21) using CDK2, EGFR, VEGFR -2, and HER2 Kinase Assay Kit (BPS Biosciences, San Diego, CA).[50] At first, CDK2, EGFR,
(§22) initi-ate the catalytic function of the enzymes. Detection reagent (Kinase-Glo® Max reagent) was the added to stop
(§23) the reaction, followed by incubation at room temperature for 15 min. Then the IC50 values were calculated by
(§24) measuring luminescence signal at 450 nm using a plate reader (Tecan Spark® 10M, Männedorf, Switzerland). All
(§25) assays were carried out based on protocol from manufacture. All samples and controls were tested in duplicate.

[12] = biological target: HER2 (Homo sapiens, UniProt P04626); assay: In vitro HER2 kinase inhibitory assay (BPS kit, Kinase-Glo); conditions: read-out: IC50 HER2, 40 min at 30 °C
Method: as §20, §21, §22, §23, §24, §25

[13] = biological target: T1, VEGFR-2 (Homo sapiens, UniProt P35968); assay: In vitro VEGFR-2 kinase inhibitory assay (BPS kit, Kinase-Glo); type: biochemical; conditions: 40 min at 30 °C
T1 construct: purchased BPS Biosciences, San Diego, CA, USA

[14] = biological target: T2, CDK2 (Homo sapiens, UniProt P24941); assay: In vitro CDK2 kinase inhibitory assay (BPS kit, Kinase-Glo); type: biochemical; conditions: 40 min at 30 °C
T2 construct: purchased BPS Biosciences, San Diego, CA, USA

[15] = tested on: HepG2 cells; assay: Propidium iodide flow cytometry cell cycle analysis; type: cell-based; conditions: HepG2, 2.6 μM, 24 h
Method: Its impacts on cell cycle progression and induction of apoptosis were investigated. The effect of compound 6c on the regulation of the cell cycle progression was studied using a Propidium Iodide Flow Cytometry Kit assay. Alterations in the cell cycle were recorded after the treatment of HepG2 cells with 2.6 μM of compounds 6c, chosen for its excellent antiproliferative activities within 24 h.
Cell cycle arrest and distribution were evaluated using a Propidium Iodide Flow Cytometry Kit (ab139418, Abcam, Cambridge, MA, USA) followed by flow cytometry analysis.
3.4.3. Flow cytometry cell cycle analysis
Cell cycle arrest and distribution were evaluated using the Propidium Iodide Flow Cytometry Kit (ab139418, Abcam) followed by flow cytometry analysis.[45,46] First, HepG2 cells were cultured at a density of 2 × 10^5/well for 24 h in the presence of tested newly synthesized compounds 6c (2.6 μM) (control cells were left untreated and both measurements were done in triplicate). Then, the attached cells were supplemented with trypsin, washed with ice-cold PBS, centrifuged, and fixed using ice -cold 70% ethanol. Next, cells were re -suspended and stored at +4 °C for at least 2 h. After that, cells were incubated with 200 μL 1X Propidium Iodide (PI) + RNase Staining Solution for 30 min at 37 °C in the dark. The DNA content in each cell nucleus was determined by Epics XL -MCL™ flow cytometer (Beckman -Coulter, USA). Finally, cell cycle phase distribution was analyzed using Flowing software 2.5.1 (Turku Centre for Biotechnology, University of Turku, Turku, Finland). […]
University of Turku, Turku, Finland).

HER2, sequence (P04626 23-1255): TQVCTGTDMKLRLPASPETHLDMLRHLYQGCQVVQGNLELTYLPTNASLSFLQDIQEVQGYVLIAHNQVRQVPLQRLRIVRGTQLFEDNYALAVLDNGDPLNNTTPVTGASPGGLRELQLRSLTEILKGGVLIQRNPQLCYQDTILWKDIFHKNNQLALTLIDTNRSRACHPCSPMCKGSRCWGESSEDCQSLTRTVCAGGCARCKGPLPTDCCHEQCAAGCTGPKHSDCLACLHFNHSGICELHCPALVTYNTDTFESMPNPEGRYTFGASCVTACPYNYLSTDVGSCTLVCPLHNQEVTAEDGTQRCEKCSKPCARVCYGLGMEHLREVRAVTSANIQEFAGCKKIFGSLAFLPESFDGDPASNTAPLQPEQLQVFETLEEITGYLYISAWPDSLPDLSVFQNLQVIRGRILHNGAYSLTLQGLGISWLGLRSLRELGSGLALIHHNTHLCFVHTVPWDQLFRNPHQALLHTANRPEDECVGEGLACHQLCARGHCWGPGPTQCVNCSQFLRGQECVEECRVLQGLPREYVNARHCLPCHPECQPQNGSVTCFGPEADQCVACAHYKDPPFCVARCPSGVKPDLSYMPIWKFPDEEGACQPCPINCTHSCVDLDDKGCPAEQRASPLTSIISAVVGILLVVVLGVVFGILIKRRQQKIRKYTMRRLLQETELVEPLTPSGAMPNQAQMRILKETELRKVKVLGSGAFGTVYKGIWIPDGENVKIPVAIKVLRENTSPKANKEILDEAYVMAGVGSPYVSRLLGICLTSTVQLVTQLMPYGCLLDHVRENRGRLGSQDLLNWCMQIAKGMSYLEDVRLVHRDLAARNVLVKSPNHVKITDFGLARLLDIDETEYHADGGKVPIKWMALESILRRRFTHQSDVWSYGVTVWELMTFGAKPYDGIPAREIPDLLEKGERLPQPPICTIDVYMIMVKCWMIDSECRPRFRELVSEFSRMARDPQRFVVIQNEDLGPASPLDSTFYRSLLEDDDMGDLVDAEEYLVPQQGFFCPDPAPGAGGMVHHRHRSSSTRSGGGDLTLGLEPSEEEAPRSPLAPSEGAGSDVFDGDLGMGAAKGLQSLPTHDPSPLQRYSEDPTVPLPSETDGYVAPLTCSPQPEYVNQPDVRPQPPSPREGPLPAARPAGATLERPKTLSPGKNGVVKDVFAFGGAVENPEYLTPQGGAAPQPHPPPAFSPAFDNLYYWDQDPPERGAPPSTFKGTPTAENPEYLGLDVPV
EGFR, sequence (P00533 25-1210): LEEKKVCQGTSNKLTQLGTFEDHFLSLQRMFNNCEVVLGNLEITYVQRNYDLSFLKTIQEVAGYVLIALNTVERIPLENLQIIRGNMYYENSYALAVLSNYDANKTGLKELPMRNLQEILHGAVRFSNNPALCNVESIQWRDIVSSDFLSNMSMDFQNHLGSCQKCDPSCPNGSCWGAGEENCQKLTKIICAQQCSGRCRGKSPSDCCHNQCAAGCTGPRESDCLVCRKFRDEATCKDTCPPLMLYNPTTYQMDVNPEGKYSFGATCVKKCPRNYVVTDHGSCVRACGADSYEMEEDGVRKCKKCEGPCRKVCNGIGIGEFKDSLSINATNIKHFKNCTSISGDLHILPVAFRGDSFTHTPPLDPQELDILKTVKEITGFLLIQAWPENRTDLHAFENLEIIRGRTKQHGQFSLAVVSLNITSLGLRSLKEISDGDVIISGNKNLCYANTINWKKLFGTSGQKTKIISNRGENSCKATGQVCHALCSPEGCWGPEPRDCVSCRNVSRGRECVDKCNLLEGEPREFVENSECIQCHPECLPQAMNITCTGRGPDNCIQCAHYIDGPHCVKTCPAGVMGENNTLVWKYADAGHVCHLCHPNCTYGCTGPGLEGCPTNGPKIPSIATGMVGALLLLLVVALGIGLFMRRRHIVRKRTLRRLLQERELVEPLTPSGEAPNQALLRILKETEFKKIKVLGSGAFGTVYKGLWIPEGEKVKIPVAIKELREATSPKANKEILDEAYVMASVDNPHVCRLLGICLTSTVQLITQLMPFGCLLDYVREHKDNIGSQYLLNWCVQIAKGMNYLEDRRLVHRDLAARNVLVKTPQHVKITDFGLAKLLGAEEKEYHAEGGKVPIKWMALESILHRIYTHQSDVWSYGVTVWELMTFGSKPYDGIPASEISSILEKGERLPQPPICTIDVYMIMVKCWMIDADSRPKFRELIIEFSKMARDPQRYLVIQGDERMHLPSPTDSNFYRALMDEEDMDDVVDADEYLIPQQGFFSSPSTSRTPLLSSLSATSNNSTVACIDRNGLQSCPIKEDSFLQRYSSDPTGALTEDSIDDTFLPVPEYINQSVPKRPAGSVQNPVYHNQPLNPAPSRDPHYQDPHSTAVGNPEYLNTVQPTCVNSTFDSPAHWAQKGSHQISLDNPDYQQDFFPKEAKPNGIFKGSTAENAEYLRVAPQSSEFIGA
T1 sequence (P35968 20-1356): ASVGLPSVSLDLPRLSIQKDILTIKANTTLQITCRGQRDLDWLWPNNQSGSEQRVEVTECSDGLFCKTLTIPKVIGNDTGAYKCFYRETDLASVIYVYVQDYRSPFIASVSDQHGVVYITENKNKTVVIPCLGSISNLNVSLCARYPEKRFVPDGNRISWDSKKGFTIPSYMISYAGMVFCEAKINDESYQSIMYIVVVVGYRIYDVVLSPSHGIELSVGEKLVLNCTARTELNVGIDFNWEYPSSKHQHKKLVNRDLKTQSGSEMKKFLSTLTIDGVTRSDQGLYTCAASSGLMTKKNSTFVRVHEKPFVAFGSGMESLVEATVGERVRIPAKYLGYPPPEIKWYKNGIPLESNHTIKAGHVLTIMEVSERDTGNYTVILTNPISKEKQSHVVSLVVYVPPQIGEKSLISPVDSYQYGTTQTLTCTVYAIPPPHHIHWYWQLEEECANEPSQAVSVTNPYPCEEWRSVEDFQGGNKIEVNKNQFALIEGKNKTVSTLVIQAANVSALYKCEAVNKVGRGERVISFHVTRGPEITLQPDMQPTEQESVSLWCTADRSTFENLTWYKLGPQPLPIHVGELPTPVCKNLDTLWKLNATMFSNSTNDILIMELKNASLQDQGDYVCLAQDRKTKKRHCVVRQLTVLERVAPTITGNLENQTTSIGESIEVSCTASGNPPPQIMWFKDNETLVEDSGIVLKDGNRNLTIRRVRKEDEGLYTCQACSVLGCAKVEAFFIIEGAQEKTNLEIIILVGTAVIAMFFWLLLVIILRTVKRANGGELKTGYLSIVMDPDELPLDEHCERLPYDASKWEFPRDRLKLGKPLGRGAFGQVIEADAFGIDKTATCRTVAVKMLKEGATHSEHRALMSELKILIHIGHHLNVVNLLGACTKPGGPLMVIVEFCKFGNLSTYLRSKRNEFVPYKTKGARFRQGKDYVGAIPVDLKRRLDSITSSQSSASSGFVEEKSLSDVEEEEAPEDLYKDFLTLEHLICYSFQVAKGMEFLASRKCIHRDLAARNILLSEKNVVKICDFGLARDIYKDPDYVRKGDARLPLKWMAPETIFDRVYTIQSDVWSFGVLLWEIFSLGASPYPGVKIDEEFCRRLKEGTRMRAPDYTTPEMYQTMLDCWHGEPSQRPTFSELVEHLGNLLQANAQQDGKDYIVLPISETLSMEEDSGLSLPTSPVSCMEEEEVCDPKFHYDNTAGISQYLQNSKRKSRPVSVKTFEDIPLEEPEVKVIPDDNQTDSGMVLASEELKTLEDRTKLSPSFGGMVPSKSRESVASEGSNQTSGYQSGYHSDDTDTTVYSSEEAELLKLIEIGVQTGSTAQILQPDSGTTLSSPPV

Compound | IC50 [5] [µM] | IC50 [6] [µM] | IC50 [7] [µM] | IC50 [8] [µM] | IC50 [9] [µM] | also measured
CN[C@@H]1C[C@H]2O[C@@](C)([C@@H]1OC)n1c3ccccc3c3c4c(c5c6ccccc6n2c5c31)C(=O)NC4 [Staurosporine, reference compound] | – | – | – | – | – | Protein Expression (Normalized to β-Actin) Bax [1]: 6.794; Protein Expression (Normalized to β-Actin) Caspase-9 [2]: 4.614; Protein Expression (Normalized to β-Actin) Bcl-2 [3]: 0.351; Protein Expression (Normalized to β-Actin) Caspase-3 [4]: 8.43
CCN(CC)CCNC(=O)c1c(C)[nH]c(/C=C2\C(=O)Nc3ccc(F)cc32)c1C [Sunitinib, reference compound] | 7.48 ± 0.6 | 5.19 ± 0.4 | 6.82 ± 0.5 | 43 ± 2.9 | 8.41 ± 0.7 | –
O=C1Nc2ccccc2/C1=N/NC(=O)c1ccc(Nc2ncnc3ccccc23)cc1 [Compound 6a, (Z)-N′-(2-Oxoindolin-3-ylidene)-4-(quinazolin-4-ylamino) benzohydrazide] | 13.1 ± 0.9 | 4.89 ± 0.3 | 7.98 ± 0.6 | 34.1 ± 2.6 | 6.24 ± 0.5 | –
O=C1Nc2ccc(Cl)cc2/C1=N/NC(=O)c1ccc(Nc2ncnc3ccccc23)cc1 [Compound 6b, (Z)-N′-(5-Chloro-2-oxoindolin-3-ylidene)-4-(quinazolin-4-ylamino)benzohydrazide] | 66.8 ± 3.4 | 70.7 ± 3.4 | 61.4 ± 3.5 | > 100 | 56.3 ± 3.2 | –
O=C1Nc2ccc(F)cc2/C1=N/NC(=O)c1ccc(Nc2ncnc3ccccc23)cc1 [Compound 6c, (Z)-N′-(5-Fluoro-2-oxoindolin-3-ylidene)-4-(quinazolin-4-ylamino)benzohydrazide] | 7.6 ± 0.5 | 3.78 ± 0.2 | 2.61 ± 0.1 | 57.3 ± 3.3 | 5.18 ± 0.4 | Protein Expression (Normalized to β-Actin) Bax [1]: 4.585; Protein Expression (Normalized to β-Actin) Caspase-9 [2]: 2.795; Necrosis [10]: 2.94; Apoptosis Induction Analysis Early ([10]; in % (unit assumed)): 28.64; Apoptosis Induction Analysis Late ([10]; in % (unit assumed)): 11.21; Apoptosis Induction Analysis Total ([10]; in % (unit assumed)): 42.79; Protein Expression (Normalized to β-Actin) Bcl-2 [3]: 0.185; IC50 [11]: 0.083 ± 0.005 µM; IC50 [12]: 0.138 ± 0.07 µM; IC50 [13]: 0.076 ± 0.004 µM; IC50 [14]: 0.183 ± 0.01 µM; Cell Cycle Distribution (%) % Sub-G1 [15]: 42.79%; Cell Cycle Distribution (%) %G0–G1 [15]: 36.47%; Cell Cycle Distribution (%) %G2/M [15]: 9.92%; Cell Cycle Distribution (%) %S [15]: 53.61%; Protein Expression (Normalized to β-Actin) Caspase-3 [4]: 10.13
COc1cccc2c1C(=O)c1c(O)c3c(c(O)c1C2=O)C[C@@](O)(C(=O)CO)C[C@@H]3O[C@H]1C[C@H](N)[C@H](O)[C@H](C)O1 [Doxorubicin, reference compound] | – | – | 4.5 ± 0.2 | – | – | –
Cc1ccc2c(c1)/C(=N/NC(=O)c1ccc(Nc3ncnc4ccccc34)cc1)C(=O)N2 [Compound 6d, (Z)-N′-(5-Methyl-2-oxoindolin-3-ylidene)-4-(quinazolin-4-ylamino)benzohydrazide] | > 100 | > 100 | 87.4 ± 4.5 | 65.8 ± 3.8 | 82.7 ± 4.3 | –
